Drawing on patent US8163771B2, “11 β-HSD1 modulators” (Exelixis, Inc., priority 2008, dated 2012), this text covers IC50 for 27 molecules.

In general, IC50 refers to the concentration needed to halve the response being measured.

Some results are limits rather than exact numbers.

T1 sequence (P28845 whole entry): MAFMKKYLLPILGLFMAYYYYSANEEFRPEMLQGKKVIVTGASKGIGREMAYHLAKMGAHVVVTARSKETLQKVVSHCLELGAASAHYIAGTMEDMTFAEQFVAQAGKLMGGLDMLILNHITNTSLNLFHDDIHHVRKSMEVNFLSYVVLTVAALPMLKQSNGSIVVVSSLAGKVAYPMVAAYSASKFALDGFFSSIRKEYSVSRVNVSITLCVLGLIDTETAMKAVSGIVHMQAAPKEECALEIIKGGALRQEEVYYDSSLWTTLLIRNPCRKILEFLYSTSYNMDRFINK

The assay has as its target T1, recombinant human 11 β-HSD1 (Homo sapiens, UniProt P28845).
T1 construct: made in house; host or cells: E. coli
Briefly: 11 β-HSD1 SPA Assay (Scintillation Proximity Assay). It is filed as biochemical. Put shortly: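 Scintillation proximity read-out of cortisol formed from 40 nM [3H]cortisone by purified recombinant human enzyme (30-100 nM, E. coli) with 1 mM NADPH, pH7.4, 2 hours at room temperature; beads with cortisol antibody and glycyrrhetinic acid stop the reaction, read next day. IC50 derived from inhibition normalised to background and maximal wells.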
For orientation: Scintillation proximity formats need no separation of bound from free tracer.
In the case of `CC(C)(Oc1cc(F)c(Cl)cc1Cl)C(=O)N[C@H]1C[C@H]2CC[C@@H](C1)N2c1ccc(S(N)(=O)=O)cn1` [Example 261, N-{8-[5-(aminosulfonyl)pyridin-2-yl]-8-azabicyclo[3.2.1]oct-3-endo-yl}-2-[(2,4-dichloro-5-fluorophenyl)oxy]-2-methylpropanamide], the IC50 is under 200 nM.

Take `CC(C)(Oc1cc(F)c(F)cc1Cl)C(=O)N[C@H]1C[C@H]2CC[C@@H](C1)N2c1ccc(S(N)(=O)=O)cn1` [Example 262, N-{8-[5-(aminosulfonyl)pyridin-2-yl]-8-azabicyclo[3.2.1]oct-3-endo-yl}-2-[(2-chloro-4,5-difluorophenyl)oxy]-2-methylpropanamide]: the IC50 was under 200 nM.

For `CC(C)(Oc1ccc(Cl)cc1C(F)(F)F)C(=O)N[C@H]1C[C@H]2CC[C@@H](C1)N2c1ccc(S(C)(=O)=O)cn1` [Example 263, 2-{[4-chloro-2-(trifluoromethyl)phenyl]oxy}-2-methyl-N-{8-[5-(methylsulfonyl)pyridin-2-yl]-8-azabicyclo[3.2.1]oct-3-endo-yl}propanamide], the 50% inhibitory concentration (IC50) is under 200 nM.

In the case of `CC(C)(Oc1ccc(F)cc1)C(=O)N[C@H]1C[C@H]2CC[C@@H](C1)N2c1ccc(S(N)(=O)=O)cn1` [Example 264, N-{8-[5-(aminosulfonyl)pyridin-2-yl]-8-azabicyclo[3.2.1]oct-3-endo-yl}-2-[(4-fluorophenyl)oxy]-2-methylpropanamide], the IC50 was under 200 nM.

As to `CC(C)(Oc1ccc(F)cc1Cl)C(=O)N[C@H]1C[C@H]2CC[C@@H](C1)N2c1ccc(C(=O)NC2CC2)cn1` [Example 265, 6-[3-endo-({2-[(2-chloro-4-fluorophenyl)oxy]-2-methylpropanoyl}amino)-8-azabicyclo[3.2.1]oct-8-yl]-N-cyclopropylpyridine-3-carboxamide], the IC50 was under 200 nM.

In the case of `CC(C)(Oc1ccc(-c2ccccc2)cc1Cl)C(=O)N[C@H]1C[C@H]2CC[C@@H](C1)N2c1ccc(C(N)=O)cn1` [Example 266, 6-[3-endo-({2-[(3-chlorobiphenyl-4-yl)oxy]-2-methylpropanoyl}amino)-8-azabicyclo[3.2.1]oct-8-yl]pyridine-3-carboxamide], the IC50 was under 200 nM.

Consider `CC(C)(Oc1cc(F)ccc1C(F)(F)F)C(=O)N[C@H]1C[C@H]2CC[C@@H](C1)N2c1ccc(S(C)(=O)=O)cn1` [Example 267, 2-{[5-fluoro-2-(trifluoromethyl)phenyl]oxy}-2-methyl-N-{8-[5-(methylsulfonyl)pyridin-2-yl]-8-azabicyclo[3.2.1]oct-3-endo-yl}propanamide], for which the IC50 is under 200 nM.

As for `CC(C)(Oc1ccc(Cl)cc1Cl)C(=O)NC1CC2CCC(C1)N2c1ccc(C(=O)NC2CC2(F)F)cn1` (stereo not drawn) [Example 268, 6-[3-endo-({2-[(2,4-dichlorophenyl)oxy]-2-methylpropanoyl}amino)-8-azabicyclo[3.2.1]oct-8-yl]-N-(2,2-difluorocyclopropyl)pyridine-3-carboxamide], the IC50 was under 200 nM.

With `CC(C)(Oc1ccc(F)cc1S(C)(=O)=O)C(=O)N[C@H]1C[C@H]2CC[C@@H](C1)N2c1ccc(C(N)=O)cn1` [Example 269, 6-{3-endo-[(2-{[4-fluoro-2-(methylsulfonyl)phenyl]oxy}-2-methylpropanoyl)amino]-8-azabicyclo[3.2.1]oct-8-yl}pyridine-3-carboxamide], the IC50 was under 200 nM.

Consider `CC(C)(Oc1cc(Cl)c(F)cc1Cl)C(=O)N[C@H]1C[C@H]2CC[C@@H](C1)N2c1ccc(NS(C)(=O)=O)cn1` [Example 270, 2-[(2,5-dichloro-4-fluorophenyl)oxy]-2-methyl-N-(8-{5-[(methylsulfonyl)amino]pyridin-2-yl}-8-azabicyclo[3.2.1]oct-3-endo-yl)propanamide], for which the IC50 is under 200 nM.

On to `CC(C)(Oc1ccc2ccccc2c1Cl)C(=O)N[C@H]1C[C@H]2CC[C@@H](C1)N2c1ccc(C(N)=O)cn1` [Example 271, 6-[3-endo-({2-[(1-chloronaphthalen-2-yl)oxy]-2-methylpropanoyl}amino)-8-azabicyclo[3.2.1]oct-8-yl]pyridine-3-carboxamide], for which the IC50 is under 200 nM.

In the case of `CC(C)(Oc1ccc(F)c(C(F)(F)F)c1)C(=O)N[C@H]1C[C@H]2CC[C@@H](C1)N2c1ccc(S(C)(=O)=O)cn1` [Example 272, 2-{[4-fluoro-3-(trifluoromethyl)phenyl]oxy}-2-methyl-N-{8-[5-(methylsulfonyl)pyridin-2-yl]-8-azabicyclo[3.2.1]oct-3-endo-yl}propanamide], the concentration for half-maximal inhibition (IC50) was under 2000 nM.

Regarding `CC(C)(Oc1ncc(Cl)cc1C(F)(F)F)C(=O)N[C@H]1C[C@H]2CC[C@@H](C1)N2c1ccc(C(=O)NCC(F)(F)F)cn1` [Example 273, 6-{3-endo-[(2-{[5-chloro-3-(trifluoromethyl)pyridin-2-yl]oxy}-2-methylpropanoyl)amino]-8-azabicyclo[3.2.1]oct-8-yl}-N-(2,2,2-trifluoroethyl)pyridine-3-carboxamide], the IC50 is under 200 nM.

Regarding `CC(C)(C(=O)N[C@H]1C[C@H]2CC[C@@H](C1)N2c1ccc(C(N)=O)cn1)S(=O)(=O)c1ccc(Cl)cc1Cl` [Example 274, 6-[3-endo-({2-[(2,4-dichlorophenyl)sulfonyl]-2-methylpropanoyl}amino)-8-azabicyclo[3.2.1]oct-8-yl]pyridine-3-carboxamide], the IC50 is under 200 nM.

With `CC(C)(Oc1ccc(F)cc1Cl)C(=O)N[C@H]1C[C@H]2CC[C@@H](C1)N2c1ccc(S(C)(=O)=O)nc1` [Example 275, 2-[(2-chloro-4-fluorophenyl)oxy]-2-methyl-N-{8-[6-(methylsulfonyl)pyridin-3-yl]-8-azabicyclo[3.2.1]oct-3-endo-yl}propanamide], the concentration for half-maximal inhibition (IC50) was under 200 nM.

On to `CC(C)(Oc1ccc(F)cc1Cl)C(=O)N[C@H]1C[C@H]2CC[C@@H](C1)N2c1ccc(-c2noc(C(F)(F)F)n2)cn1` [Example 276, 2-[(2-chloro-4-fluorophenyl)oxy]-2-methyl-N-(8-{5-[5-(trifluoromethyl)-1,2,4-oxadiazol-3-yl]pyridin-2-yl}-8-azabicyclo[3.2.1]oct-3-endo-yl)propanamide], for which the IC50 was under 2000 nM.

As to `CC(C)(Oc1ccc(Cl)cc1-c1ccc(F)cc1)C(=O)N[C@H]1C[C@H]2CC[C@@H](C1)N2c1ccc(C(N)=O)cn1` [Example 277, 6-[3-endo-({2-[(5-chloro-4′-fluorobiphenyl-2-yl)oxy]-2-methylpropanoyl}amino)-8-azabicyclo[3.2.1]oct-8-yl]pyridine-3-carboxamide], the IC50 is under 200 nM.

As to `CC(C)(Oc1ccc(Cl)cc1Cl)C(=O)NC1CC2CCC(C1)N2c1ncc(NC(=O)CC(F)(F)F)cc1Cl` (stereo not drawn) [Example 278, N-{5-chloro-6-[3-endo-({2-[(2,4-dichlorophenyl)oxy]-2-methylpropanoyl}amino)-8-azabicyclo[3.2.1]oct-8-yl]pyridin-3-yl}-3,3,3-trifluoropropanamide], the concentration for half-maximal inhibition (IC50) was under 2000 nM.

Regarding `CC(C)(Oc1ccc(Cl)cc1Cl)C(=O)N[C@H]1C[C@H]2CC[C@@H](C1)N2C(=O)c1ccc(C(N)=O)cc1` [Example 279, 4-{[3-endo-({2-[(2,4-dichlorophenyl)oxy]-2-methylpropanoyl}amino)-8-azabicyclo[3.2.1]oct-8-yl]carbonyl}benzamide], the IC50 is under 2000 nM.

As to `CS(=O)(=O)c1ccc(N2[C@@H]3CC[C@H]2C[C@@H](NC(=O)C2(c4ccc(F)c(C(F)(F)F)c4)CC2)C3)nc1` [Example 280, 1-[4-fluoro-3-(trifluoromethyl)phenyl]-N-{8-[5-(methylsulfonyl)pyridin-2-yl]-8-azabicyclo[3.2.1]oct-3-endo-yl}cyclopropanecarboxamide], the 50% inhibitory concentration (IC50) was under 2000 nM.

As to `CS(=O)(=O)c1ccc(N2[C@@H]3CC[C@H]2C[C@@H](NC(=O)C2(c4ccc(F)c(F)c4)CC2)C3)nc1` [Example 281, 1-(3,4-difluorophenyl)-N-{8-[5-(methylsulfonyl)pyridin-2-yl]-8-azabicyclo[3.2.1]oct-3-endo-yl}cyclopropanecarboxamide], the IC50 was under 2000 nM.

Take `CC(C)(Oc1ccc(-c2ccc(F)cc2)cc1Cl)C(=O)N[C@H]1C[C@H]2CC[C@@H](C1)N2c1ccc(C(N)=O)cn1` [Example 282, 6-[3-endo-({2-[(3-chloro-4′-fluorobiphenyl-4-yl)oxy]-2-methylpropanoyl}amino)-8-azabicyclo[3.2.1]oct-8-yl]pyridine-3-carboxamide]: the half-maximal inhibitory concentration (IC50) is under 200 nM.

Take `CC(C)(Oc1ccc(F)cc1C(F)(F)F)C(=O)N[C@H]1C[C@H]2CC[C@@H](C1)N2c1ccc(NS(C)(=O)=O)cc1` [Example 283, 2-{[4-fluoro-2-(trifluoromethyl)phenyl]oxy}-2-methyl-N-(8-{4-[(methylsulfonyl)amino]phenyl}-8-azabicyclo[3.2.1]oct-3-endo-yl)propanamide]: the IC50 was under 200 nM.

For `CC(C)(Oc1ccc(Cl)cc1C(F)(F)F)C(=O)N[C@H]1C[C@H]2CC[C@@H](C1)N2c1ccc(S(C)(=O)=O)cc1` [Example 284, 2-{[4-chloro-2-(trifluoromethyl)phenyl]oxy}-2-methyl-N-{8-[4-(methylsulfonyl)phenyl]-8-azabicyclo[3.2.1]oct-3-endo-yl}propanamide], the IC50 is under 200 nM.

With `CC(C)(Oc1ccc(Cl)cc1C1CCCCC1)C(=O)N[C@H]1C[C@H]2CC[C@@H](C1)N2c1ccc(C(N)=O)cn1` [Example 285, 6-[3-endo-({2-[(4-chloro-2-cyclohexylphenyl)oxy]-2-methylpropanoyl}amino)-8-azabicyclo[3.2.1]oct-8-yl]pyridine-3-carboxamide], the IC50 was under 200 nM.

In the case of `CC(C)(Sc1ccc(Cl)cc1Cl)C(=O)N[C@H]1C[C@H]2CC[C@@H](C1)N2c1ccc(C(N)=O)cn1` [Example 286, 6-[3-endo-({2-[(2,4-dichlorophenyl)thio]-2-methylpropanoyl}amino)-8-azabicyclo[3.2.1]oct-8-yl]pyridine-3-carboxamide], the IC50 was under 200 nM.

Take `CC(C)(Oc1ccc(Cl)cc1Cl)C(=O)N[C@H]1C[C@H]2CC[C@@H](C1)N2c1ccc(C(=O)O)cn1` [Example 287, 6-[3-endo-({2-[(2,4-dichlorophenyl)oxy]-2-methylpropanoyl}amino)-8-azabicyclo[3.2.1]oct-8-yl]pyridine-3-carboxylic acid]: the concentration for half-maximal inhibition (IC50) is under 200 nM.
